# Test results published in PubChem BioAssay AID2060600 (Molecular Pharmacology Branch, DTP, NCI, 2025).
# pIC50: −log10 of the molar value.
# Tested on: 996289-038-R-J1-PDC complex spheroid viability
# Assay: Anticancer human tumor 996289-038-R-J1-PDC patient-derived colon adenocarcinoma cell line growth inhibition [CLK]
# Details: for pIC50: curve of first compound; for viability, T/C: stronger effect = lower value
# Method in brief: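 Patient-derived tumor cells grown as complex spheroids with HUVEC endothelial cells and mesenchymal stem cells, treated with drug combinations. Concentrations descend in half-log steps from near clinical Cmax, or from 10 microM if Cmax unknown.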
# [1] = second compound 0.0316 µM, first compound 0.0316 µM
# [2] = second compound 0.0316 µM, first compound 0.1 µM
# [3] = second compound 0.0316 µM, first compound 0.316 µM
# [4] = second compound 0.0316 µM, first compound 1 µM
# [5] = second compound 0.0316 µM, first compound 3.16 µM
# [6] = second compound 0.0316 µM, first compound 10 µM
# [7] = second compound 0.1 µM, first compound 0.0316 µM
# [8] = second compound 0.1 µM, first compound 0.1 µM
# [9] = second compound 0.1 µM, first compound 0.316 µM
# [10] = second compound 0.1 µM, first compound 1 µM
# [11] = second compound 0.1 µM, first compound 3.16 µM
# [12] = second compound 0.1 µM, first compound 10 µM
# [13] = second compound 0.316 µM, first compound 0.0316 µM
# [14] = second compound 0.316 µM, first compound 0.1 µM
# [15] = second compound 0.316 µM, first compound 0.316 µM
# [16] = second compound 0.316 µM, first compound 1 µM
# [17] = second compound 0.316 µM, first compound 3.16 µM
# [18] = second compound 0.316 µM, first compound 10 µM
# [19] = second compound 1 µM, first compound 0.0316 µM
# [20] = second compound 1 µM, first compound 0.1 µM
# [21] = second compound 1 µM, first compound 0.316 µM
# [22] = second compound 1 µM, first compound 1 µM
# [23] = second compound 1 µM, first compound 3.16 µM
# [24] = second compound 1 µM, first compound 10 µM
# [25] = second compound 3.16 µM, first compound 0.0316 µM
# [26] = second compound 3.16 µM, first compound 0.1 µM
# [27] = second compound 3.16 µM, first compound 0.316 µM
# [28] = second compound 3.16 µM, first compound 1 µM
# [29] = second compound 3.16 µM, first compound 3.16 µM
# [30] = second compound 3.16 µM, first compound 10 µM
# [31] = second compound 10 µM, first compound 0.0316 µM
# [32] = second compound 10 µM, first compound 0.1 µM
# [33] = second compound 10 µM, first compound 0.316 µM
# [34] = second compound 10 µM, first compound 1 µM
# [35] = second compound 10 µM, first compound 3.16 µM
# [36] = second compound 10 µM, first compound 10 µM
# 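Further: spheroids exposed to the agents for 7 days before readout.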
smiles,measurement,setting,value
CC(C)CC(NC(=O)C(Cc1ccccc1)NC(=O)c1cnccn1)B(O)O (stereo unspecified) + CNC(=O)c1ccc(Nc2nc(OC3CCCC3)c3c(-c4ccc5nc(C)oc5c4)c[nH]c3n2)c(OC)c1,pIC50,second compound 0.0316 µM,8.34
same,pIC50,second compound 0.1 µM,8.38
same,pIC50,second compound 0.316 µM,8.74
same,pIC50,second compound 1 µM,8.88
same,pIC50,second compound 3.16 µM,8.94
same,pIC50,second compound 10 µM,8.96
same,"viability, T/C","second compound 0.0316 µM, first compound 0.000949 µM",121%
same,"viability, T/C","second compound 0.0316 µM, first compound 0.003 µM",76.2%
same,"viability, T/C","second compound 0.0316 µM, first compound 0.00949 µM",4.49%
same,"viability, T/C","second compound 0.0316 µM, first compound 0.03 µM",0.95%
same,"viability, T/C","second compound 0.0316 µM, first compound 0.0949 µM",3.14%
same,"viability, T/C","second compound 0.0316 µM, first compound 0.3 µM",0.51%
same,"viability, T/C","second compound 0.1 µM, first compound 0.000949 µM",139%
same,"viability, T/C","second compound 0.1 µM, first compound 0.003 µM",70%
same,"viability, T/C","second compound 0.1 µM, first compound 0.00949 µM",1.94%
same,"viability, T/C","second compound 0.1 µM, first compound 0.03 µM",0.61%
same,"viability, T/C","second compound 0.1 µM, first compound 0.0949 µM",0.54%
same,"viability, T/C","second compound 0.1 µM, first compound 0.3 µM",0.26%
same,"viability, T/C","second compound 0.316 µM, first compound 0.000949 µM",76.2%
same,"viability, T/C","second compound 0.316 µM, first compound 0.003 µM",30.4%
same,"viability, T/C","second compound 0.316 µM, first compound 0.00949 µM",0.98%
same,"viability, T/C","second compound 0.316 µM, first compound 0.03 µM",1.34%
same,"viability, T/C","second compound 0.316 µM, first compound 0.0949 µM",0.59%
same,"viability, T/C","second compound 0.316 µM, first compound 0.3 µM",1.22%
same,"viability, T/C","second compound 1 µM, first compound 0.000949 µM",66.4%
same,"viability, T/C","second compound 1 µM, first compound 0.003 µM",9.51%
same,"viability, T/C","second compound 1 µM, first compound 0.00949 µM",0.47%
same,"viability, T/C","second compound 1 µM, first compound 0.03 µM",0.42%
same,"viability, T/C","second compound 1 µM, first compound 0.0949 µM",3.6%
same,"viability, T/C","second compound 1 µM, first compound 0.3 µM",1.03%
same,"viability, T/C","second compound 3.16 µM, first compound 0.000949 µM",58.1%
same,"viability, T/C","second compound 3.16 µM, first compound 0.003 µM",6.51%
same,"viability, T/C","second compound 3.16 µM, first compound 0.00949 µM",1.11%
same,"viability, T/C","second compound 3.16 µM, first compound 0.03 µM",0.54%
same,"viability, T/C","second compound 3.16 µM, first compound 0.0949 µM",0.85%
same,"viability, T/C","second compound 3.16 µM, first compound 0.3 µM",1.44%
same,"viability, T/C","second compound 10 µM, first compound 0.000949 µM",56.3%
same,"viability, T/C","second compound 10 µM, first compound 0.003 µM",6.54%
same,"viability, T/C","second compound 10 µM, first compound 0.00949 µM",1.51%
same,"viability, T/C","second compound 10 µM, first compound 0.03 µM",0.65%
same,"viability, T/C","second compound 10 µM, first compound 0.0949 µM",0.7%
same,"viability, T/C","second compound 10 µM, first compound 0.3 µM",2.05%
CC1COCCN1c1cc(C2(S(C)(=N)=O)CC2)nc(-c2ccnc3[nH]ccc23)n1 (stereo unspecified) + CNC(=O)c1ccc(Nc2nc(OC3CCCC3)c3c(-c4ccc5nc(C)oc5c4)c[nH]c3n2)c(OC)c1,pIC50,second compound 0.0316 µM,< 5.00
same,pIC50,second compound 0.1 µM,< 5.00
same,pIC50,second compound 0.316 µM,< 5.00
same,pIC50,second compound 1 µM,5.44
same,pIC50,second compound 3.16 µM,5.55
same,pIC50,second compound 10 µM,5.67
same,"viability, T/C",[1],116%
same,"viability, T/C",[2],126%
same,"viability, T/C",[3],118%
same,"viability, T/C",[4],117%
same,"viability, T/C",[5],122%
same,"viability, T/C",[6],100%
same,"viability, T/C",[7],129%
same,"viability, T/C",[8],135%
same,"viability, T/C",[9],129%
same,"viability, T/C",[10],122%
same,"viability, T/C",[11],121%
same,"viability, T/C",[12],88.1%
same,"viability, T/C",[13],84.8%
same,"viability, T/C",[14],83%
same,"viability, T/C",[15],79.4%
same,"viability, T/C",[16],73.2%
same,"viability, T/C",[17],73.8%
same,"viability, T/C",[18],58.5%
same,"viability, T/C",[19],70.3%
same,"viability, T/C",[20],71.5%
same,"viability, T/C",[21],68.8%
same,"viability, T/C",[22],57.5%
same,"viability, T/C",[23],54.2%
same,"viability, T/C",[24],36.9%
same,"viability, T/C",[25],68.5%
same,"viability, T/C",[26],60.9%
same,"viability, T/C",[27],55.8%
same,"viability, T/C",[28],64%
same,"viability, T/C",[29],46%
same,"viability, T/C",[30],39.8%
same,"viability, T/C",[31],59.3%
same,"viability, T/C",[32],55.7%
same,"viability, T/C",[33],57%
same,"viability, T/C",[34],53.7%
same,"viability, T/C",[35],48.1%
same,"viability, T/C",[36],31%
O=C(c1cc(Cc2n[nH]c(=O)c3ccccc23)ccc1F)N1CCN(C(=O)C2CC2)CC1 + CNC(=O)c1ccc(Nc2nc(OC3CCCC3)c3c(-c4ccc5nc(C)oc5c4)c[nH]c3n2)c(OC)c1,pIC50,second compound 0.0316 µM,< 5.00
same,pIC50,second compound 0.1 µM,< 5.00
same,pIC50,second compound 0.316 µM,< 5.00
same,pIC50,second compound 1 µM,< 5.00
same,pIC50,second compound 3.16 µM,< 5.00
same,pIC50,second compound 10 µM,< 5.00
same,"viability, T/C",[1],126%
same,"viability, T/C",[2],113%
same,"viability, T/C",[3],113%
same,"viability, T/C",[4],124%
same,"viability, T/C",[5],120%
same,"viability, T/C",[6],103%
same,"viability, T/C",[7],122%
same,"viability, T/C",[8],121%
same,"viability, T/C",[9],116%
same,"viability, T/C",[10],117%
same,"viability, T/C",[11],114%
same,"viability, T/C",[12],115%
same,"viability, T/C",[13],78.9%
same,"viability, T/C",[14],74.4%
same,"viability, T/C",[15],76.3%
same,"viability, T/C",[16],75.4%
same,"viability, T/C",[17],85.3%
same,"viability, T/C",[18],71.3%
same,"viability, T/C",[19],70.8%
same,"viability, T/C",[20],65.8%
same,"viability, T/C",[21],64%
same,"viability, T/C",[22],60.6%
same,"viability, T/C",[23],69.3%
same,"viability, T/C",[24],61.3%
same,"viability, T/C",[25],62.6%
same,"viability, T/C",[26],57.5%
same,"viability, T/C",[27],58.1%
same,"viability, T/C",[28],60.2%
same,"viability, T/C",[29],64%
same,"viability, T/C",[30],58.5%
same,"viability, T/C",[31],62.6%
same,"viability, T/C",[32],59.4%
same,"viability, T/C",[33],61%
same,"viability, T/C",[34],58.3%
same,"viability, T/C",[35],61.1%
same,"viability, T/C",[36],52.1%
